From PubChem BioAssay AID1963845 (Molecular Pharmacology Branch, DTP, NCI, 2024)

System: 429239-143-T-J1-PDC complex spheroid viability
Assay: Anticancer human tumor 429239-143-T-J1-PDC patient-derived small cell lung carcinoma cell line growth inhibition [POLQ]
Details: for IC50: curve of first compound; for viability, T/C: stronger effect = lower value
How it was run: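 Patient-derived tumour cells were co-cultured with HUVEC and mesenchymal stem cells as multicellular spheroids at 37 °C. They were treated with POLQ inhibitors (novobiocin, ART-558, RP6685) alone or combined with other agents. Top concentrations were at or near clinical Cmax (otherwise 10 microM; SN-38 at 1 microM), decreasing in half-log steps.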

[1] = second compound 0.0316 µM, first compound 0.00316 µM
[2] = second compound 0.0316 µM, first compound 0.01 µM
[3] = second compound 0.0316 µM, first compound 0.0316 µM
[4] = second compound 0.0316 µM, first compound 0.1 µM
[5] = second compound 0.1 µM, first compound 0.00316 µM
[6] = second compound 0.1 µM, first compound 0.01 µM
[7] = second compound 0.1 µM, first compound 0.0316 µM
[8] = second compound 0.1 µM, first compound 0.1 µM
[9] = second compound 0.316 µM, first compound 0.00316 µM
[10] = second compound 0.316 µM, first compound 0.01 µM
[11] = second compound 0.316 µM, first compound 0.0316 µM
[12] = second compound 0.316 µM, first compound 0.1 µM
[13] = second compound 1 µM, first compound 0.00316 µM
[14] = second compound 1 µM, first compound 0.01 µM
[15] = second compound 1 µM, first compound 0.0316 µM
[16] = second compound 1 µM, first compound 0.1 µM
[17] = second compound 3.16 µM, first compound 0.00316 µM
[18] = second compound 3.16 µM, first compound 0.01 µM
[19] = second compound 3.16 µM, first compound 0.0316 µM
[20] = second compound 3.16 µM, first compound 0.1 µM
[21] = second compound 10 µM, first compound 0.00316 µM
[22] = second compound 10 µM, first compound 0.01 µM
[23] = second compound 10 µM, first compound 0.0316 µM
[24] = second compound 10 µM, first compound 0.1 µM
[25] = second compound 0.0316 µM, first compound 0.316 µM
[26] = second compound 0.0316 µM, first compound 1 µM
[27] = second compound 0.1 µM, first compound 0.316 µM
[28] = second compound 0.1 µM, first compound 1 µM
[29] = second compound 0.316 µM, first compound 0.316 µM
[30] = second compound 0.316 µM, first compound 1 µM
[31] = second compound 1 µM, first compound 0.316 µM
[32] = second compound 1 µM, first compound 1 µM
[33] = second compound 3.16 µM, first compound 0.316 µM
[34] = second compound 3.16 µM, first compound 1 µM
[35] = second compound 10 µM, first compound 0.316 µM
[36] = second compound 10 µM, first compound 1 µM
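Further: luminescence signal used as surrogate measure of viable cells; spheroids exposed to compounds for seven days before readout.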
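Wherever viability, T/C is given: 100% = DMSO vehicle control viability as luminescence relative to vehicle.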

Q: With `CC[C@@]1(O)C(=O)OCc2c1cc1n(c2=O)Cc2cc3c(CN(C)C)c(O)ccc3nc2-1` + Nc1ccc(C#CCN(C(=O)Cc2ncc(C(F)(F)F)cc2C(F)(F)F)c2ccc(F)cc2)nn1 as the molecule, how does the IC50 (second compound 0.0316 µM) read?
A: 16.9 nM

Q: And the IC50 (second compound 0.1 µM)?
A: 17.3 nM

Q: And the IC50 (second compound 0.316 µM)?
A: 17.9 nM

Q: What about the IC50 (second compound 1 µM) of the same molecule?
A: 16.7 nM

Q: And the IC50 (second compound 3.16 µM)?
A: 17.7 nM

Q: And the IC50 (second compound 10 µM)?
A: 17.7 nM

Q: And the viability, T/C (second compound 0.0316 µM, first compound 0.000316 µM)?
A: 95.7%

Q: What about the viability, T/C (second compound 0.0316 µM, first compound 0.001 µM) of the same molecule?
A: 103%

Q: And the viability, T/C [1]?
A: 106%

Q: What about the viability, T/C [2] of the same molecule?
A: 84.2%

Q: What about the viability, T/C [3] of the same molecule?
A: 9.5%

Q: What about the viability, T/C [4] of the same molecule?
A: 5.15%

Q: And the viability, T/C (second compound 0.1 µM, first compound 0.000316 µM)?
A: 103%

Q: What about the viability, T/C (second compound 0.1 µM, first compound 0.001 µM) of the same molecule?
A: 95.5%

Q: What about the viability, T/C [5] of the same molecule?
A: 103%

Q: What about the viability, T/C [6] of the same molecule?
A: 86.9%

Q: And the viability, T/C [7]?
A: 9.05%

Q: And the viability, T/C [8]?
A: 5.15%

Q: And the viability, T/C (second compound 0.316 µM, first compound 0.000316 µM)?
A: 101%

Q: What about the viability, T/C (second compound 0.316 µM, first compound 0.001 µM) of the same molecule?
A: 106%

Q: What about the viability, T/C [9] of the same molecule?
A: 96.5%

Q: What about the viability, T/C [10] of the same molecule?
A: 92.5%

Q: What about the viability, T/C [11] of the same molecule?
A: 7.36%

Q: And the viability, T/C [12]?
A: 9.85%

Q: And the viability, T/C (second compound 1 µM, first compound 0.000316 µM)?
A: 107%

Q: What about the viability, T/C (second compound 1 µM, first compound 0.001 µM) of the same molecule?
A: 100%

Q: And the viability, T/C [13]?
A: 99.6%

Q: And the viability, T/C [14]?
A: 82.9%

Q: What about the viability, T/C [15] of the same molecule?
A: 8.94%

Q: What about the viability, T/C [16] of the same molecule?
A: 5.82%

Q: And the viability, T/C (second compound 3.16 µM, first compound 0.000316 µM)?
A: 101%

Q: What about the viability, T/C (second compound 3.16 µM, first compound 0.001 µM) of the same molecule?
A: 98%

Q: What about the viability, T/C [17] of the same molecule?
A: 99.8%

Q: And the viability, T/C [18]?
A: 89.3%

Q: What about the viability, T/C [19] of the same molecule?
A: 9.67%

Q: What about the viability, T/C [20] of the same molecule?
A: 5.18%

Q: What about the viability, T/C (second compound 10 µM, first compound 0.000316 µM) of the same molecule?
A: 104%

Q: What about the viability, T/C (second compound 10 µM, first compound 0.001 µM) of the same molecule?
A: 103%

Q: What about the viability, T/C [21] of the same molecule?
A: 93.5%

Q: And the viability, T/C [22]?
A: 87.8%

Q: What about the viability, T/C [23] of the same molecule?
A: 11.9%

Q: And the viability, T/C [24]?
A: 7.53%

Q: For `COc1cccc(OCCCN)c1-c1cc(Nc2cnc(C#N)cn2)n[nH]1` + COC1C(OC(N)=O)C(O)C(Oc2ccc3c(O)c(NC(=O)c4ccc(O)c(CC=C(C)C)c4)c(=O)oc3c2C)OC1(C)C, which IC50 (second compound 0.0316 µM) is on record?
A: 82.1 nM

Q: And the IC50 (second compound 0.1 µM)?
A: 69 nM

Q: What about the IC50 (second compound 0.316 µM) of the same molecule?
A: 69.6 nM

Q: And the IC50 (second compound 1 µM)?
A: 64.5 nM

Q: And the IC50 (second compound 3.16 µM)?
A: 57.9 nM

Q: And the IC50 (second compound 10 µM)?
A: 54.9 nM

Q: And the viability, T/C [1]?
A: 98.8%

Q: And the viability, T/C [2]?
A: 94.7%

Q: What about the viability, T/C [3] of the same molecule?
A: 79.8%

Q: What about the viability, T/C [4] of the same molecule?
A: 42.2%

Q: What about the viability, T/C [25] of the same molecule?
A: 32%

Q: What about the viability, T/C [26] of the same molecule?
A: 21.3%

Q: What about the viability, T/C [5] of the same molecule?
A: 93.6%

Q: And the viability, T/C [6]?
A: 92.8%

Q: What about the viability, T/C [7] of the same molecule?
A: 66.6%

Q: What about the viability, T/C [8] of the same molecule?
A: 42.1%

Q: What about the viability, T/C [27] of the same molecule?
A: 26.6%

Q: What about the viability, T/C [28] of the same molecule?
A: 21%

Q: And the viability, T/C [9]?
A: 99.7%

Q: What about the viability, T/C [10] of the same molecule?
A: 99%

Q: And the viability, T/C [11]?
A: 72.8%

Q: What about the viability, T/C [12] of the same molecule?
A: 39.1%

Q: And the viability, T/C [29]?
A: 27.1%

Q: What about the viability, T/C [30] of the same molecule?
A: 20.4%

Q: And the viability, T/C [13]?
A: 90.8%

Q: What about the viability, T/C [14] of the same molecule?
A: 99.1%

Q: What about the viability, T/C [15] of the same molecule?
A: 70.9%

Q: And the viability, T/C [16]?
A: 37.3%

Q: What about the viability, T/C [31] of the same molecule?
A: 30.3%

Q: And the viability, T/C [32]?
A: 24%

Q: And the viability, T/C [17]?
A: 96.3%

Q: What about the viability, T/C [18] of the same molecule?
A: 99.4%

Q: And the viability, T/C [19]?
A: 66.7%

Q: And the viability, T/C [20]?
A: 35.3%

Q: What about the viability, T/C [33] of the same molecule?
A: 28.5%

Q: And the viability, T/C [34]?
A: 23.1%

Q: And the viability, T/C [21]?
A: 83.6%

Q: And the viability, T/C [22]?
A: 83.5%

Q: What about the viability, T/C [23] of the same molecule?
A: 64.7%

Q: What about the viability, T/C [24] of the same molecule?
A: 33.5%

Q: What about the viability, T/C [35] of the same molecule?
A: 34%

Q: And the viability, T/C [36]?
A: 23.4%

Q: `CNCc1ccc(-c2[nH]c3cc(F)cc4c3c2CCNC4=O)cc1` + COC1C(OC(N)=O)C(O)C(Oc2ccc3c(O)c(NC(=O)c4ccc(O)c(CC=C(C)C)c4)c(=O)oc3c2C)OC1(C)C was tested. Which IC50 (second compound 0.0316 µM) did it give?
A: 2300 nM

Q: And the IC50 (second compound 0.1 µM)?
A: 2400 nM

Q: What about the IC50 (second compound 0.316 µM) of the same molecule?
A: 2570 nM

Q: What about the IC50 (second compound 1 µM) of the same molecule?
A: 2700 nM

Q: And the IC50 (second compound 3.16 µM)?
A: 1840 nM

Q: What about the IC50 (second compound 10 µM) of the same molecule?
A: 1580 nM

Q: What about the viability, T/C [3] of the same molecule?
A: 95.1%

Q: And the viability, T/C [4]?
A: 75%

Q: What about the viability, T/C [25] of the same molecule?
A: 87.1%

Q: And the viability, T/C [26]?
A: 66.5%

Q: What about the viability, T/C (second compound 0.0316 µM, first compound 3.16 µM) of the same molecule?
A: 43.2%

Q: What about the viability, T/C (second compound 0.0316 µM, first compound 10 µM) of the same molecule?
A: 23.2%

Q: And the viability, T/C [7]?
A: 85.5%

Q: What about the viability, T/C [8] of the same molecule?
A: 101%

Q: What about the viability, T/C [27] of the same molecule?
A: 80.6%

Q: And the viability, T/C [28]?
A: 65.9%

Q: And the viability, T/C (second compound 0.1 µM, first compound 3.16 µM)?
A: 46.3%

Q: And the viability, T/C (second compound 0.1 µM, first compound 10 µM)?
A: 21.4%

Q: And the viability, T/C [11]?
A: 102%

Q: And the viability, T/C [12]?
A: 85.5%

Q: What about the viability, T/C [29] of the same molecule?
A: 74.5%

Q: What about the viability, T/C [30] of the same molecule?
A: 69.6%

Q: And the viability, T/C (second compound 0.316 µM, first compound 3.16 µM)?
A: 49.3%

Q: And the viability, T/C (second compound 0.316 µM, first compound 10 µM)?
A: 21.4%

Q: What about the viability, T/C [15] of the same molecule?
A: 87.5%

Q: And the viability, T/C [16]?
A: 86.9%

Q: What about the viability, T/C [31] of the same molecule?
A: 79.3%

Q: And the viability, T/C [32]?
A: 72.6%

Q: And the viability, T/C (second compound 1 µM, first compound 3.16 µM)?
A: 46%

Q: What about the viability, T/C (second compound 1 µM, first compound 10 µM) of the same molecule?
A: 19.7%

Q: And the viability, T/C [19]?
A: 87.4%

Q: And the viability, T/C [20]?
A: 88.3%

Q: And the viability, T/C [33]?
A: 87.1%

Q: What about the viability, T/C [34] of the same molecule?
A: 59.8%

Q: What about the viability, T/C (second compound 3.16 µM, first compound 3.16 µM) of the same molecule?
A: 40.3%

Q: What about the viability, T/C (second compound 3.16 µM, first compound 10 µM) of the same molecule?
A: 20%

Q: What about the viability, T/C [23] of the same molecule?
A: 75.3%

Q: What about the viability, T/C [24] of the same molecule?
A: 81.3%

Q: And the viability, T/C [35]?
A: 72.2%

Q: And the viability, T/C [36]?
A: 55.1%

Q: And the viability, T/C (second compound 10 µM, first compound 3.16 µM)?
A: 39.8%

Q: And the viability, T/C (second compound 10 µM, first compound 10 µM)?
A: 19%
